Data reported in publication PMC10272112 (Nature Communications, 2023).

Target: T1, HDAC6-catalytic domain 2 (HDAC6CD2) (Homo sapiens, UniProt Q9UBN7)
T1 construct: HDAC6-catalytic domain 2 (HDAC6CD2); expressed in transfected cells
T1 sequence (Q9UBN7 482-800 limits assumed): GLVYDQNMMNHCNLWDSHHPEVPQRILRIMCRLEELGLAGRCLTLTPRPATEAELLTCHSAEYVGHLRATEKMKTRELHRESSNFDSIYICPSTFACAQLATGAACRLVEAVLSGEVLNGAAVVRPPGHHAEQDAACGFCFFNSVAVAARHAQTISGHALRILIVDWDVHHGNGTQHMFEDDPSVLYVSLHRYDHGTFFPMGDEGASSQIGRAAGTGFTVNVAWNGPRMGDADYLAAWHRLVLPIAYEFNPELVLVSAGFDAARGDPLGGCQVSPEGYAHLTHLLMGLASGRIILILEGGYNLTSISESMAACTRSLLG
Assay: NanoBRET intracellular target engagement assay
Assay type: cell-based
Description: For the production of transfected HeLa mono-clones stably expressing HDAC-nanoBRET fusion proteins of HDAC10 and HDAC6-catalytic domain 2 (HDAC6CD2), plasmids expressing a fusion of HDAC10 with nanoluciferase were obtained from Promega (N2170). HeLa cells (0.75 × 10^6) were seeded in a 6 cm dish and were transfected with a mix of 10 μg plasmid and 3 μL Fugene in 200 μL OptiMEM after 24 h. The intracellular target engagement assay on HDAC10 and HDAC6CD2 was performed using the NanoBRET™ Target Engagement Intracellular HDAC Assay (Promega N2081 and N2090) as described by the kit manufacturer in a 96-well plate (Corning 3600) format with 2 × 10^4 cells per well and a tracer concentration of 0.3 μM. Inhibitors were dosed with a D300e Digital Dispenser (Tecan). DMSO concentrations were normalized to 0.5% for all wells. After dosing, assay plates were shaken at 800 rpm and incubated at 37 °C for 2 h followed by measurement of 450 nm and 650 nm luminescence (80 nm bandwidth) at room temperature with a CLARIOstar (BMG Labtech) plate reader 2 min after NanoLuc substrate addition.

SMILES: O=C(O)CCCCC1CCSS1 (racemic) [(R/S)-LA, (R/S)-lipoic acid]
- potency of intracellular target engagement and HDAC substrate hyperacetylation (peer review response): 50 to 300 µM

SMILES: NC(=O)CCCCC1CCSS1 (racemic) [(R/S)-LM, (R/S)-lipoamide]
- intracellular binding to HDAC6 (HeLa cells): dose-dependent intracellular binding
- IC50 (HeLa cells, 2 h, read-out: concentration of half maximal HDAC6 inhibition): 35 µM
